US12673964B2, “Crystal of thyroid hormone B receptor agonist, process for preparing the same and use thereof” (GANNEX PHARMA CO., LTD., priority 2020, dated 2026)

Experiments:
[1] = Hygroscopicity test of crystal form I (dynamic moisture adsorption instrument, DVS); format: physicochemical; details: for Weight gain percentage at 80% relative humidity: DVS, about 28 mg of crystal
Protocol: About 28 mg of the crystal obtained in Example 1 was taken. The hygroscopicity of the crystal was determined with dynamic moisture adsorption instrument in accordance with the above conditions. The weight gain of crystal form I was within 0.2% at 80% relative humidity.

[2] = Particle size test of crystal form I (micrometer particle size analyzer MS3000, dry method); format: physicochemical; details: particle size analysis
Text: The particle size conditions of the crystal form I of the compound of formula I used in the present disclosure are: name/model of detection instrument: micrometer particle size analyzer/MS3000; test method: dry method; sample injection rate: 50%; air pressure: 2.5 bar; slit width: 2.0 mm; refractive index: 1.52; absorption rate: 0.1; shade degree: 0.5% to 6%; background measurement time: 10 s; and sample measurement time: 10 s. The crystal obtained in Example 1 was subject to a particle size test in accordance with the above conditions.

Weight gain percentage at 80% relative humidity [1]: 0.1213% | Weight gain percentage at 80% relative humidity ([1]; listed as crystal form I): ≤ 0.2% | Hygroscopicity class ([1]; guidance principle of drug hygroscopicity, Appendix XIXJ of the Chinese Pharmacopoeia 2015): no or nearly no hygroscopicity | Specific Area [2]: 807.1 m^2/kg | particle size Dv10 ([2]; Dv 10): 6.41 µm | particle size Dv50 ([2]; Dv 50): 20.3 µm | particle size Dv90 ([2]; Dv 90): 48.2 µm | particle size Dv95 ([2]; Dv 95): 59.1 µm
SMILES: Cc1cc(OC[P@@]2(=O)OCC[C@@H](c3cccc(Cl)c3)O2)cc(C)c1Cc1ccc(O)c(C(C)C)c1 [Example 1]
